Test results reported in patent US20230220010A1, “BROAD-SPECTRUM ANTIVIRAL PEPTIDES” (priority 2020, published 2023).
Square brackets hold non-standard residues; d marks the D form. Ends that are not written are not given here. Peptide text beside a SMILES is read from it.

Experiments:
H3N2 influenza virus = settings: for EC50: influenza virus
[1] = tested on: Lassa pseudovirus (LASVpv); settings: for EC50: 72 h
[2] = Cytotoxicity assay, ALAMARBLUE, HEK cells

Row | Compound | EC50 (H3N2 influenza virus) [µM] | EC50 [1] [µM] | EC50 [2] [µM] | antiviral activity against LASVpv [1] | activity against H3N2 (H3N2 influenza virus)
1 | CC(C)C[C@@H](NC(=O)[C@@H](C)NC(=O)[C@@H](Cc1c[nH]c2ccccc12)NC(=O)CNC(=O)[C@@H](CCCNC(=N)N)NC(=O)[C@H](N)CCCNC(=N)N)C(=O)N[C@H](CCCNC(=N)N)C(=O)N[C@H](CC(C)C)C(=O)N[C@@H](C(=O)N[C@H](CC(C)C)C(=O)N[C@H](C)C(=O)N[C@H](Cc1ccc(O)cc1)C(N)=O)C(C)C [*arva] (H-[dR][dR]G[dW][dA][dL][dR][dL][dV][dL][dA][dY]-NH2) | 0.4 |  |  |  | 
2 | CC[C@H](C)[C@H](NC(=O)CN)C(=O)NCC(=O)N[C@@H](C)C(=O)N[C@H](C(=O)N[C@@H](CC(C)C)C(=O)N[C@@H](CCCCN)C(=O)N[C@H](C(=O)N[C@@H](CC(C)C)C(=O)N[C@H](C(=O)N[C@H](C(=O)NCC(=O)N[C@@H](CC(C)C)C(=O)N1CCC[C@H]1C(=O)N[C@@H](C)C(=O)NCC(=O)N[C@H](C(=O)N[C@@H](CO)C(=O)N[C@@H](Cc1c[nH]c2ccccc12)C(=O)N[C@H](C(=O)N[C@@H](CCCCN)C(=O)N[C@@H](CCCNC(=N)N)C(=O)N[C@@H](CCCCN)C(=O)N[C@@H](CCCNC(=N)N)C(=O)N[C@@H](CCC(N)=O)C(=O)N[C@@H](CCC(N)=O)C(N)=O)[C@@H](C)CC)[C@@H](C)CC)[C@@H](C)O)[C@@H](C)O)C(C)C)C(C)C [Mel-L16G, reference compound] |  | 28 | 21 |  | 
3 | GIGAVLKGLATGLPAGISWIKQQAQL-NH2 [MelN4, reference compound] |  | > 100 | > 100 |  | 
4 | KDGWLLLRLGYGRR [Cterm-Cat] |  |  |  | next most active peptide | 
5 | KLALLKDGWLLLR [Mid-Cat] |  |  |  | moderate potency | 
6 | LALLKDGWLLL [Mid] |  |  |  | no antiviral activity | 
7 | PLZYLRLLRGQF [TP2, reference compound] |  |  |  |  | some antiviral activity
8 | RRGFSLKLALLKDGWLLLLRLGYGRR-NH2 [IT1-f] | 1.5 | 1.1 | 20 |  | 
9 | RRGFSLKLALLYRGWLLLLRLGYGRR-NH2 [IT1-c] | 1.2 |  |  |  | 
10 | RRGFSLKLKLLYRGWALALRLGYGRR-NH2 [IT1-e] | 0.6 | 1.2 | > 50 |  | 
11 | RRGFSLKLRLLYRGWGLALRLGYGRR-NH2 [IT1-d] | 0.4 | 1.3 | > 100 |  | 
12 | RRGWALRLVLAY-NH2 [*ARVA, RRGWALRLVLAY] | 0.9 | 6.2 | > 75 |  | 
13 | RRGWGLRLVLYYGRR-NH2 [*GRVY*, RRGWGLRLVLYYGRR] | 9.1 | 2.1 |  |  | 
14 | RRGWNLRLRLVYGRR-NH2 [*NRRV*, RRGWNLRLRLVYGRR] | 8 |  | 15 |  | 
15 | RRGWRLNLNLYYGRR-NH2 [*RNNY*, RRGWRLNLNLYYGRR] | 2.3 | 2.1 | 19 |  | 
16 | RRGWTLNLTLNYGRR-NH2 [*TNTN*, RRGWTLNLTLNYGRR] | 6.1 | 1.1 | 22 |  | 
17 | RRGWVLDLVLYYGRR-NH2 [*VDVY*, RRGWVLDLVLYYGRR] | 12 | 5 | > 100 |  | 
18 | RRRRRRRRRWC-NH2 [Arg9, RRRRRRRRRWC, reference compound] | 6.7 | > 100 | > 75 |  | 
19 | WALRLYLGVY-NH2 [ARYV, WALRLYLGVY] | 3.7 | 7.9 |  |  | 
20 | WVLVLRLGY-NH2 [VVRG, WVLVLRLGY] | 6.1 |  |  |  | 
